Results on five compounds are retold here after ChEMBL document CHEMBL1147729, “(+)-(2R,5S)-4-[4-cyano-3-(trifluoromethyl)phenyl]-2,5-dimethyl-N-[6-(trifluoromethyl)pyridin-3-yl]piperazine-1-carboxamide (YM580) as an orally potent and peripherally selective nonsteroidal androgen receptor antagonist” (J Med Chem, 2006).

The source made the active and inactive calls. The calls are words filed in the database; no cut-off is given here.

Data set [1] has as its system Rattus norvegicus. The data set is described as follows: Effect on ventral prostate weight with reference to control in Wistar rat at 10 mg/kg/day, po. The settings on record: Prostate gland.
In a further data set the target is T1, Androgen receptor (Homo sapiens, UniProt P10275).
T1 sequence (P10275 whole entry): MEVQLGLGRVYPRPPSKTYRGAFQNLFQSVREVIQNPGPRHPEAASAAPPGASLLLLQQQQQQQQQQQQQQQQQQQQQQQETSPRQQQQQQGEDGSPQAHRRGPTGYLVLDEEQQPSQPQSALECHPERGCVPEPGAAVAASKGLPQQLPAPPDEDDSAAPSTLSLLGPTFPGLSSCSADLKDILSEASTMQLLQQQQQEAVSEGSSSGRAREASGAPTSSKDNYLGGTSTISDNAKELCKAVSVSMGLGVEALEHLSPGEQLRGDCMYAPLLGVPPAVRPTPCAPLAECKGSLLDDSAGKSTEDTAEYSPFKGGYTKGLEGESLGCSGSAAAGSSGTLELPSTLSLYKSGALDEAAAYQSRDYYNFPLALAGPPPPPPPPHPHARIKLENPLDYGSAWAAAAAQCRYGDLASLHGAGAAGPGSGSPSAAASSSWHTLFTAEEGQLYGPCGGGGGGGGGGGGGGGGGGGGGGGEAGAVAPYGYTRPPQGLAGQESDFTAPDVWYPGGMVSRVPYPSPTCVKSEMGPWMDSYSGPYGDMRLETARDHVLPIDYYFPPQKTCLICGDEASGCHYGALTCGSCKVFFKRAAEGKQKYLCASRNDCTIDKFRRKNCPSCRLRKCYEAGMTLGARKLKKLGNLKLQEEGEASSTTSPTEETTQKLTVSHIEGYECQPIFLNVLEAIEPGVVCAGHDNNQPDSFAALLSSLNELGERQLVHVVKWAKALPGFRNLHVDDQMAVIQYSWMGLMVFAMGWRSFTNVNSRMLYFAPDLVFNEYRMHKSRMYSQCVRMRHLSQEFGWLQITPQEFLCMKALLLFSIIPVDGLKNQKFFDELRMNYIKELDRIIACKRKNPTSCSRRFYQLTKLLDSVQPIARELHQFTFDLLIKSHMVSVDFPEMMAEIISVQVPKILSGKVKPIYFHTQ

Data set [2] can be described thus: Oral clearance in rat at 3 mg/kg, po. The class given is ADME, organism-based. Details: dose 3 mg/kg, route oral. The settings on record: in vivo.
Data set [3] in a line: Cmax in rat plasma at 3 mg/kg, po. The class given is ADME, organism-based. Also noted: dose 3 mg/kg, route oral.
The subject of data set [4] is Rattus norvegicus. In words: Effect on ventral prostate weight with reference to control in Wistar rat at 100 mg/kg/day. The class given is ADME, organism-based, Prostate gland. The settings on record: in vivo.
The nature of data set [5]: AUC (0-72)hrs in rat plasma at 3 mg/kg, po. The class given is ADME, organism-based. Also noted: time < 72 hr, dose 3 mg/kg, route oral.
Data set [6] can be described thus: Half life in rat ventral prostate at 3 mg/kg, po. The class given is ADME, organism-based, Prostate gland. Details: dose 3 mg/kg, route oral.
Data set [7] can be described thus: AUC (0-72)hrs in rat hypothalamus at 3 mg/kg, po. The class given is ADME, organism-based. Details: time < 72 hr, dose 3 mg/kg, route oral.
Data set [8] can be described thus: Half life in rat plasma at 3 mg/kg, po. Also noted: dose 3 mg/kg, route oral. The class given is ADME, organism-based.
Data set [9] in a line: Cmax in rat hypothalamus at 3 mg/kg, po. The class given is ADME, organism-based. Also noted: dose 3 mg/kg, route oral.
The nature of data set [10]: Oral clearance in rat ventral prostate at 3 mg/kg, po. The class given is ADME, organism-based, Prostate gland. Details: dose 3 mg/kg, route oral.
Data set [11] is described as follows: Half life in rat hypothalamus at 3 mg/kg, po. The class given is ADME, organism-based. Also noted: dose 3 mg/kg, route oral.
A further data set concerns the target T2, Glucocorticoid receptor (Homo sapiens, UniProt P04150).
T2 sequence (P04150 whole entry): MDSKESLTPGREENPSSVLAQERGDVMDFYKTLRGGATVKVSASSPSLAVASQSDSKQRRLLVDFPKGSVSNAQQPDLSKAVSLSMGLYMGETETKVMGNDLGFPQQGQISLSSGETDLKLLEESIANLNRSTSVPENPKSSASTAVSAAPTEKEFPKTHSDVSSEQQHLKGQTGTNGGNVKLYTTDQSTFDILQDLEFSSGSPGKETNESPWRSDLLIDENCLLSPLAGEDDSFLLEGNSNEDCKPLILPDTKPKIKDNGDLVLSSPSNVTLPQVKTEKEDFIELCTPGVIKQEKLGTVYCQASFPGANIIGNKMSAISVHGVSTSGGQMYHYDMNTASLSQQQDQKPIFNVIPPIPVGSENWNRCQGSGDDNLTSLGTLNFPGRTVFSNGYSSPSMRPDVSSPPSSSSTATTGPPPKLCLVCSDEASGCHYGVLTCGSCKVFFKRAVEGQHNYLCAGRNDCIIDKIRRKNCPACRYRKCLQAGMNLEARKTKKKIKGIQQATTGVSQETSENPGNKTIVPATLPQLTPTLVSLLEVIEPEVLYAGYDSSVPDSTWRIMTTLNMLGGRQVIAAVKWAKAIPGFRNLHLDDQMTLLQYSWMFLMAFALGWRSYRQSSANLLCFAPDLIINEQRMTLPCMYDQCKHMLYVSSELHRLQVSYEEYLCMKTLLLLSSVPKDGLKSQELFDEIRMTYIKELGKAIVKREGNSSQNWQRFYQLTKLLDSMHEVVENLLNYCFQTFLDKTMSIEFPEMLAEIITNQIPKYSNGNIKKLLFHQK
The data set is described as follows: Inhibition of human GR.

Data set [12] is described as follows: Cmax in rat ventral prostate at 3 mg/kg, po. The class given is ADME, organism-based, Prostate gland. Also noted: dose 3 mg/kg, route oral.
The subject of data set [13] is Rattus norvegicus. In words: Effect on ventral prostate weight with reference to control in Wistar rat at 10 mg/kg/day, po. The class given is functional, Prostate gland.
Another data set deals with T3, Progesterone receptor (Rattus norvegicus, UniProt Q63449).
T3 sequence (Q63449 whole entry): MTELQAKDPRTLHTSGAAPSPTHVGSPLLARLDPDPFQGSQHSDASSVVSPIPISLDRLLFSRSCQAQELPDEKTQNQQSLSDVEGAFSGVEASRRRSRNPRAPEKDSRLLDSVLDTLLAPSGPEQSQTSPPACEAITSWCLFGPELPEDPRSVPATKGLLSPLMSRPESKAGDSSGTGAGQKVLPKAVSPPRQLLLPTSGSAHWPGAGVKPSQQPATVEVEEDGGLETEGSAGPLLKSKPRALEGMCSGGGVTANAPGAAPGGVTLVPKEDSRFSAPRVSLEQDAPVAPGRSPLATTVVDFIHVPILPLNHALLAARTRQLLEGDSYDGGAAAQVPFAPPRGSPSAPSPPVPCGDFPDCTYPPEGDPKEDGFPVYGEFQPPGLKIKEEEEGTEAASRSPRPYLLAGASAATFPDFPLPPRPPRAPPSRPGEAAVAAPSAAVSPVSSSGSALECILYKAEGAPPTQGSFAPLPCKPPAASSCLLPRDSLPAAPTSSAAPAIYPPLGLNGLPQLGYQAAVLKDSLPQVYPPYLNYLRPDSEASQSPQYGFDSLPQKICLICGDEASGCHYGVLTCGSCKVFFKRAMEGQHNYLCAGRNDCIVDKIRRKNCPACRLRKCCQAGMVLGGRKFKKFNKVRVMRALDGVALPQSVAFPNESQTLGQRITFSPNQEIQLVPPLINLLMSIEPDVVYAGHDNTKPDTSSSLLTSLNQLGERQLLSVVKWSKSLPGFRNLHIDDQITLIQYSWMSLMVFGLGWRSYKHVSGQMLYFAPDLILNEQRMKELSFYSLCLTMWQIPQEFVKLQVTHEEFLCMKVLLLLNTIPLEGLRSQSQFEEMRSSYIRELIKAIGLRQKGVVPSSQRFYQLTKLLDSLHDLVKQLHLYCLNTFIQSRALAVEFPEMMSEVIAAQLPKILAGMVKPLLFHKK
The data set is described as follows: Inhibition of rat PR.

Data set [14] is described as follows: Oral clearance in rat hypothalamus at 3 mg/kg, po. Details: dose 3 mg/kg, route oral. The class given is ADME, organism-based.
Data set [15] is described as follows: AUC (0-72)hrs in rat ventral prostate at 3 mg/kg, po. The class given is ADME, organism-based, Prostate gland. Also noted: time < 72 hr, dose 3 mg/kg, route oral.
In data set [16] the test system is Rattus norvegicus. In words: Effect on ventral prostate weight with reference to control in Wistar rat at 30 mg/kg/day, po. The class given is functional. The settings on record: Prostate gland.
In a further data set the target is T4, Estrogen receptor (Homo sapiens, UniProt P03372).
T4 sequence (P03372 whole entry): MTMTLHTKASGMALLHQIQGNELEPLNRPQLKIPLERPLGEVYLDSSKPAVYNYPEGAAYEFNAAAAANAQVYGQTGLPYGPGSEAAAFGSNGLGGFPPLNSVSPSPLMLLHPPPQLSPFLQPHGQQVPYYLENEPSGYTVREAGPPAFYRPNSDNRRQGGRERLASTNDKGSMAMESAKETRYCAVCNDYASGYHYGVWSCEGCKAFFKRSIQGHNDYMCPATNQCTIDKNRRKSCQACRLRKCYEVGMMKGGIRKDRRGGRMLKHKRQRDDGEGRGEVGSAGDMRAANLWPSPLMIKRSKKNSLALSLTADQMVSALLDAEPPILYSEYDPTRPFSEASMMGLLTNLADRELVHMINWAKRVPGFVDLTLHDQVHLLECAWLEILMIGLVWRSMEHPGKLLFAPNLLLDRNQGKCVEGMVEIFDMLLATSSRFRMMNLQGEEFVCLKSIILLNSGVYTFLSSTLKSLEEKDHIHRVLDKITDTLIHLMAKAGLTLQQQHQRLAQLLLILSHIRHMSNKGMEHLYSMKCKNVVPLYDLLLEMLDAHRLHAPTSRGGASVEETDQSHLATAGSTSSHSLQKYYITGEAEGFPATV
The data set is described as follows: Inhibition of human ERalpha.

Description for Androgen receptor: Inhibition of AR mediated transcriptional activation using reporter assay

Consider `C[C@@H]1CN(C(=O)Nc2ccc(C(F)(F)F)nc2)[C@@H](C)CN1c1ccc(C#N)c(C(F)(F)F)c1`, for which the inhibition result with Rattus norvegicus [1] is “inactive”.

For the compound `COc1ncccc1NC(=O)N1C[C@H](C)N(c2ccc(C#N)c(C(F)(F)F)c2)C[C@H]1C` (racemic), the inhibition entry in the data set with Rattus norvegicus [1] was “inactive”. At Androgen receptor, half-maximal inhibition (IC50) required 0.19 µM.

Take `C[C@@H]1CN(c2ccc(C#N)c(C(F)(F)F)c2)[C@@H](C)CN1C(=O)Nc1ccc(F)cc1F`: the inhibition entry in the data set on Rattus norvegicus [1] was “inactive”. The half-inhibitory concentration (IC50) against Androgen receptor came out at 0.2 µM.

`CC(O)(CS(=O)(=O)c1ccc(F)cc1)C(=O)Nc1ccc(C#N)c(C(F)(F)F)c1` (stereo unspecified) [BICALUTAMIDE]: the CL/F in data set [2] was 0.945 mL/min/kg; in data set [10], 0.84 mL/min/kg; in [14] it was 3.75 mL/min/kg. Moreover, the maximum concentration (Cmax) came to 1410 ng/mL in data set [3], 321 ng/mL in [9] and 1990 ng/mL in data set [12]. This compound also registered an Activity in the data set on Rattus norvegicus [4] of 55%. Moreover, the figures for the exposure (AUC) at 72 h in data set [5], in data set [7] and in [15] were 46900 ng·h/mL, 10600 ng·h/mL and 52500 ng·h/mL, respectively. Further, the half-life in data set [6] is 23.4 h; in [8] it was 22.3 h; in data set [11], 27.8 h. In addition, the Ki on Glucocorticoid receptor was greater than 100 µM; at Progesterone receptor, 7.2 µM. The compound further came in with an Inhibition with Rattus norvegicus [13] of 45%.

Turning to `C[C@@H]1CN(c2ccc(C#N)c(C(F)(F)F)c2)[C@@H](C)CN1C(=O)Nc1ccc(C(F)(F)F)nc1` (racemic), the CL/F was 2.22 mL/min/kg in data set [2] and 1.14 mL/min/kg in [10]. The peak concentration (Cmax) amounted to 702 ng/mL in data set [3], 96 ng/mL in [9] and 1560 ng/mL in data set [12]. Further, the AUC at 72 h stood at 22000 ng·h/mL in data set [5], 2580 ng·h/mL in data set [7] and 43200 ng·h/mL in data set [15]. Further, the results for the half-life in data set [6] and in data set [8] were 11.2 h and 12.5 h, respectively. For the same compound, the 50% effect level in the data set with Rattus norvegicus [16] (ED50) was put at a dose of 2.2 mg/kg. For the same compound, the results for the inhibition constant Ki on Glucocorticoid receptor, on Progesterone receptor and at Estrogen receptor were greater than 100 µM, 3.3 µM and greater than 100 µM, respectively. Moreover, the inhibition in vivo at 10 mg/kg/day in the data set with Rattus norvegicus [13] (Rattus norvegicus, Wistar, Prostate gland) amounted to 67%.
